Patent publication US20220242851A1, “CRYSTAL FORM AND SALT OF QUINAZOLINE COMPOUND AND PREPARATION METHOD THEREOF” (SHENZHEN JINRUI FOUNDATION BIOTECH CO., LTD, priority 2019, published 2022)

Tests used:
[1] = target: T1, CYP3A4 (Homo sapiens, UniProt P08684); assay: Inhibition of CYP enzyme activity in human liver microsome, CYP3A4; assay type: in vitro ADME
T1 construct: in the assay of CYP enzyme activity in human liver microsome; from tissue; host or cells: human liver microsome
From the text: The results of the compound disclosed herein and the reference compound Poziotinib in the assay of CYP enzyme activity in human liver microsome were shown in the following table (Table 17).

[2] = target: HER4(ErbB4) (Homo sapiens, UniProt Q15303); assay: In vitro enzyme activity, HER4 (radiometric, Eurofins); assay type: biochemical; settings: conclusion
HER4(ErbB4), sequence (Q15303 26-1308): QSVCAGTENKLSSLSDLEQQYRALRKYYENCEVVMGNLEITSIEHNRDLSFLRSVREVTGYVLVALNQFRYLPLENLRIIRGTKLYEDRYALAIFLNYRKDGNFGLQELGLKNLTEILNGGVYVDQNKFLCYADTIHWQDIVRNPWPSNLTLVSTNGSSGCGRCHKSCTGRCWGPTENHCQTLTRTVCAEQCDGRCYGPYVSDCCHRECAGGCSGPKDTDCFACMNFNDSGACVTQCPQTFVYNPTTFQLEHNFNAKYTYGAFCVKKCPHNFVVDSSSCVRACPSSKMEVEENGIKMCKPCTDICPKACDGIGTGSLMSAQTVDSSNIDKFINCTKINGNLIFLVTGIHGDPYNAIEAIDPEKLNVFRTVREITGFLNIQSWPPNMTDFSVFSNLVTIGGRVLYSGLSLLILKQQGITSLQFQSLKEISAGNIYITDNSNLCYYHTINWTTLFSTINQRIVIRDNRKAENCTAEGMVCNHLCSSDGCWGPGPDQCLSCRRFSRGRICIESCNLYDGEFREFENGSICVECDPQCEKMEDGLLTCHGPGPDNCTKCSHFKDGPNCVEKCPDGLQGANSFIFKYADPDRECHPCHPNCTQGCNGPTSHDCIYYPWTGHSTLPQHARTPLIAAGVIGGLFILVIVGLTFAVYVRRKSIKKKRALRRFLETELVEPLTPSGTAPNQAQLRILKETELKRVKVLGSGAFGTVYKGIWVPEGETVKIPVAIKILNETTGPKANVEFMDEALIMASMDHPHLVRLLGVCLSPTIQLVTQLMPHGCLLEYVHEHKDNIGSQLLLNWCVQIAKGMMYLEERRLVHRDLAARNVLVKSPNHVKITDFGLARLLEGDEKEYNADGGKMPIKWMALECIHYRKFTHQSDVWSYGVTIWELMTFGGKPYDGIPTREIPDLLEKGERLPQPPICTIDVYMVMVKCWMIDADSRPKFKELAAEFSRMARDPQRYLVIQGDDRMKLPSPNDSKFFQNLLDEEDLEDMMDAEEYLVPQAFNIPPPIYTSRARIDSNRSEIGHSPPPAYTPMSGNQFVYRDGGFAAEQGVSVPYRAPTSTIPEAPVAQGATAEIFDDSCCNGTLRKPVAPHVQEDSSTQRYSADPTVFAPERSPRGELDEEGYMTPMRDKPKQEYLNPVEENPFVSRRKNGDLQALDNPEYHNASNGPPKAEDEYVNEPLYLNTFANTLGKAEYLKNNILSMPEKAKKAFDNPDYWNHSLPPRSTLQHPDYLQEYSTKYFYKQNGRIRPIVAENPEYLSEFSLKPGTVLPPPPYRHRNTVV
Description: (§1) The purpose of this assay is to detect the in vitro inhibitory activity of compounds on HER1(ErbB1), HER2(ErbB2), and HER4(ErbB4). The enzymes used in this assay are human ErbB 1, ErbB2 and ErbB4. Eurofins Pharma Discovery Service provided the method for activity detection. Steps and method of the assay (96-well plate): A buffer solution of the assay compounds in a dilution of 5-fold (5 μL), polypeptide substrate poly(Glu, Tyr) (4:1) (2.5 μL), ErbB (4-20 ng, 2.5 μL), MnCl2 (50 mM, 1.25 μL), dH2O (3.75 μL), and [γ-^33P]ATP (10 μL) were added, and incubated at 30° C. for 10 minutes. The reaction was terminated by adding 3% phosphoric acid. 10 μL of the sample was taken and transferred to Filtermate A. The filter disc was washed 3 times with 75 mM phosphoric acid and once with methanol. The filter disc was transferred to a sealed plastic bag and the scintillation mixture (4 mL) was added. The intensity of the emitted photon was detected by a scintillation luminescence counter. The CPM (times/min) of the enzyme sample was compared with the CPM of the internal control sample. The level of photon intensity reflected the degree of the tyrosine kinase activity.

[3] = target: HER2(ErbB2) (Homo sapiens, UniProt P04626); assay: In vitro enzyme activity, HER2 (radiometric, Eurofins); assay type: biochemical; settings: conclusion
HER2(ErbB2), sequence (P04626 23-1255): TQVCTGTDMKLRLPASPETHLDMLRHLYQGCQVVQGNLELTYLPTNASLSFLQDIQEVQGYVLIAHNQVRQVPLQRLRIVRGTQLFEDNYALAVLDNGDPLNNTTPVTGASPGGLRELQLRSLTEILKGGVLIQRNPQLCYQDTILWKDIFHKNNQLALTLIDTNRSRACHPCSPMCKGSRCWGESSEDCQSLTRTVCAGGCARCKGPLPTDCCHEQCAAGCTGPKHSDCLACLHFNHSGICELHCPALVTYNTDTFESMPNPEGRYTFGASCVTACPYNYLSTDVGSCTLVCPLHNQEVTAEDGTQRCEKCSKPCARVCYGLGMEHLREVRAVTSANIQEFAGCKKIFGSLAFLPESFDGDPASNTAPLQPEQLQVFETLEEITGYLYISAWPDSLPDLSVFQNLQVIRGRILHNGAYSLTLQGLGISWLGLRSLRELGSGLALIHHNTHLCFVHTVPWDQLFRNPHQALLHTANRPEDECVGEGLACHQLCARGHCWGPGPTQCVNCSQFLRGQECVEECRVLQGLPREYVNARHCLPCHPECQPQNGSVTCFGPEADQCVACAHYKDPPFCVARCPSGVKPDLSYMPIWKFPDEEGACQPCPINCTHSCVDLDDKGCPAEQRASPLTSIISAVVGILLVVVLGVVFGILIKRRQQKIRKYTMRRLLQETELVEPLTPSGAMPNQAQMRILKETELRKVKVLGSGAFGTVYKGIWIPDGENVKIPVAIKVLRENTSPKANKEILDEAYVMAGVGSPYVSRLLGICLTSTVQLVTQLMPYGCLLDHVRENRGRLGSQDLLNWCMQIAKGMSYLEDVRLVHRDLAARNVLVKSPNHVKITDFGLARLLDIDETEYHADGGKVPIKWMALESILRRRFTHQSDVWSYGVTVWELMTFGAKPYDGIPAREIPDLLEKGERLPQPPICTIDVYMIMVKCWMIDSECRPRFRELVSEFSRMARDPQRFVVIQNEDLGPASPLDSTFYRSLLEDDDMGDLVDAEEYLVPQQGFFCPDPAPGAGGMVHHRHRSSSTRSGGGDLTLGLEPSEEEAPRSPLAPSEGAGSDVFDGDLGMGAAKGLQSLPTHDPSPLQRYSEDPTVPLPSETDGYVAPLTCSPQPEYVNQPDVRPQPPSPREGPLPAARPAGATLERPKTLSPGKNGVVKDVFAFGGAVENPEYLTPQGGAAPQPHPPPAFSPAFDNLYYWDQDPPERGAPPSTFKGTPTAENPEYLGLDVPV
Description: as §1

T1 sequence (P08684 whole entry): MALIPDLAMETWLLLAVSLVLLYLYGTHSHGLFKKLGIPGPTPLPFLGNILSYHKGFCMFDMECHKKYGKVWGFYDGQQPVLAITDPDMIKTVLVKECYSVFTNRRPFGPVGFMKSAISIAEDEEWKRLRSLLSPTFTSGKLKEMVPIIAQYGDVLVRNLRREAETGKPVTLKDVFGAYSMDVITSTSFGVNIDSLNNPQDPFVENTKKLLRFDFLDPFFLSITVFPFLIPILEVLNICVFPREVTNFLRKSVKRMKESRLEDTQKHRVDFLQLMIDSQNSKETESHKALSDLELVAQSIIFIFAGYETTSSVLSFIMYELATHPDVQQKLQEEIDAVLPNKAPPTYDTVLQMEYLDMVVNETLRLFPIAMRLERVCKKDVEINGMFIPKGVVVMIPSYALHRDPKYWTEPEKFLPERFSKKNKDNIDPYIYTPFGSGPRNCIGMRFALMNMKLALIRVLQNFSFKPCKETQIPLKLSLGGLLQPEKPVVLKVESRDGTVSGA

## C=CC(=O)N1[C@@H]2CC[C@H]1C[C@H](Nc1cc3c(Nc4ccc(Cl)c(Cl)c4F)ncnc3cc1OC)C2 [Compound of formula (I)]
[1]
  inhibitory activity on CYP3A4 (in words): no inhibitory activity
[2]
  inhibitory activity on HER4 (in words): significant inhibitory activity
[3]
  inhibitory activity on HER2 (in words): significant inhibitory activity
